Measured values taken from US8158389B2, “Products and methods for in vivo secretion of monatin” (priority 2005, dated 2012).
Values joined by “and” are separate entries in the source; they are usually repeats but may differ in a detail not shown here. Equal values may be shown once.

Key:
AcrAB efflux system = biological target: T1, AcrAB efflux system (Escherichia coli, UniProt P31224); assay: Monatin efflux per dry cell weight after induction of the AcrAB efflux pump with sodium decanoate; assay type: cell-based
T1 construct: endogenous in cells; host or cells: E. coli BL21 (DE3) carrying aspC/proA on pET32
T1 sequence (P31224 whole entry): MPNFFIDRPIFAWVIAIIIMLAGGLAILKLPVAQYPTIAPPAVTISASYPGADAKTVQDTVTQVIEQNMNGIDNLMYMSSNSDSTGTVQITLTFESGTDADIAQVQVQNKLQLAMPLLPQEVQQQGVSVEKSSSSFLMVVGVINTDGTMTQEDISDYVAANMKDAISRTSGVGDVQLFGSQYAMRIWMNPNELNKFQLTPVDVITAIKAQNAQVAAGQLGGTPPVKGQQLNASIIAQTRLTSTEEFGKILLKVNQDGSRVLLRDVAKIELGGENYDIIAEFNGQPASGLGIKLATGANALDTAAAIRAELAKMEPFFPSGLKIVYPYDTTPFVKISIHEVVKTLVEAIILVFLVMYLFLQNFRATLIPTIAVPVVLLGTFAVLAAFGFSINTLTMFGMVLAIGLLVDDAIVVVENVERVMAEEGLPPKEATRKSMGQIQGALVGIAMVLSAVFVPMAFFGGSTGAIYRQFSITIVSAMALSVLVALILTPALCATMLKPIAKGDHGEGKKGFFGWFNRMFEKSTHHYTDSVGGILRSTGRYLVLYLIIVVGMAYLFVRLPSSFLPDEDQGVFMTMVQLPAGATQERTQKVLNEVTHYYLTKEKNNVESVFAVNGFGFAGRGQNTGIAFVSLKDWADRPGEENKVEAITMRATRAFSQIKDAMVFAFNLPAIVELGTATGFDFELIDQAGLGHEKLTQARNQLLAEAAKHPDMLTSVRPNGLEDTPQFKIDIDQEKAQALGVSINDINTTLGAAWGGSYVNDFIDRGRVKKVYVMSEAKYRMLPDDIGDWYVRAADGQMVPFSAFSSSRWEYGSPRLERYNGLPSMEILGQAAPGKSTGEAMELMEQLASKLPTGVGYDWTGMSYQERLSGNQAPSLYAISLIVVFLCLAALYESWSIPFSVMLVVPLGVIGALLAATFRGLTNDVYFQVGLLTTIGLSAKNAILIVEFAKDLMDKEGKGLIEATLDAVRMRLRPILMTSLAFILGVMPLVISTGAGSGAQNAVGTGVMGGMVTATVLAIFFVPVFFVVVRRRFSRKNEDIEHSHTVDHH
T1 sequence (P02930 23-493, further chain): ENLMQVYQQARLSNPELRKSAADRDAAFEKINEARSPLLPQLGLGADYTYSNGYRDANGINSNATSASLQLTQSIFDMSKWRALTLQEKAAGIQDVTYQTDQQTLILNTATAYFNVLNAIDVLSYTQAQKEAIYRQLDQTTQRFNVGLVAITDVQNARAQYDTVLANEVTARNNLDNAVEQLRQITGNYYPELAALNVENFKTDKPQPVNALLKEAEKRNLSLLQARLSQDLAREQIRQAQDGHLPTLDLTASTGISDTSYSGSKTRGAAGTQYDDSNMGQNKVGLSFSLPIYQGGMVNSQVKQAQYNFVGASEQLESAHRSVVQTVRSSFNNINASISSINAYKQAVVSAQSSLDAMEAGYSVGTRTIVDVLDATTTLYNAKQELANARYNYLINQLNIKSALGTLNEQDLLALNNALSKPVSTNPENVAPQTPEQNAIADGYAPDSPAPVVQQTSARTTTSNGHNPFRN
T1 sequence (P0AE06 25-397, further chain): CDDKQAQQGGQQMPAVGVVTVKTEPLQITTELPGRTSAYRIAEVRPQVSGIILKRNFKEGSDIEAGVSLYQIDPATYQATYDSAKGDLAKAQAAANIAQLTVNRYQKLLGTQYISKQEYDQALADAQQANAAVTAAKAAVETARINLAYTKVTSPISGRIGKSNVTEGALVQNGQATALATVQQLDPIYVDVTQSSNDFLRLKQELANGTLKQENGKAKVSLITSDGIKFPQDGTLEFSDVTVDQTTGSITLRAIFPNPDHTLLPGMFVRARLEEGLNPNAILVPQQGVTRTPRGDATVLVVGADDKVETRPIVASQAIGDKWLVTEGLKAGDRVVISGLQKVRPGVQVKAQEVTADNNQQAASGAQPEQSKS
Protocol: The microbial strain used for the experiment was E. coli BL21 (DE3) : : aspC/proA/pET32 (WO 03091396). The symbol : :, as is known in the art, stands for “transformed.” Example 12 provides a non-limiting exemplary method for transforming a microorganism. For an inoculum, the E. coli strains were grown overnight at 37° C. and 250 rpm in Luria-Bertani (“LB”) medium with 100 μg/mL ampicillin. For the experimental treatments, Trp-1+ glucose medium, a minimal medium that has been used for increased production of tryptophan in E. coli cells (Zeman et al. Folia Microbiol. 35:200-204, (1990)), was prepared as follows. To 800 mL nanopure water the following reagents were added: 2 g (NH4)2SO4 and 13.6 g KH2PO4. The pH was adjusted to 7.0, the volume was increased to 948 mL, and the medium was autoclaved. Following sterilization, 0.2 g MgSO4.7H2O, 0.01 g CaCl2.2H2O, and 0.5 mg FeSO4.7H2O were added to the medium in a 1.8 mL volume followed by addition of 0.2 mL of Neidhardt's micronutrient solution. Neidhardt, F. C., et al., “Culture medium for Enterobacteria,” J. Bacteriol. 119:736-746 (1974). Neidhardt's medium includes (per liter): 0.18 g (NH4)6(MO7)24.4H2O, 1.24 g H3BO3, 0.36 g CoCl2.6H2O, 0.12 g CuSO4 (anhydrous), 0.8 g MnCl2.4H2O, and 0.14 g ZnSO4.7H2O. A 50% glucose solution was prepared separately and sterile-filtered. Forty mL of glucose solution and 10 mL of 1 M 3-Morpholinopropanesulfonic acid (“MOPS”) buffer were added to the base medium (950 mL) for a 1 L final volume. […] Flasks were incubated at 37° C. with agitation at 250 rpm up to induction. […] 0.5 mM pyridoxine hydrochloride, and 0.2 mL of Balch's vitamins (Balch, W. E., et al., “Methanogens: reevaluation of a unique biological group,” Microbiol. Rev. 43:260-296, (1979)) were added at induction and the incubation temperature was lowered to 30° C. following induction. […] Some treatments included 2.5 mM sodium decanoate addition at 3.5 hours following induction. Samples for monatin analysis and dry cell weight determination were taken at 24 and 30 hours. Monatin analysis was done as described in Example 13.
Analyses of mixtures for monatin and tryptophan derived from in vitro or in vivo biochemical reactions were performed using a Waters/Micromass liquid chromatography-tandem mass spectrometry (“LC/MS/MS”) instrument including a Waters 2795 liquid chromatograph with a Waters 996 Photo-Diode Array (PDA) absorbance monitor placed in series between the chromatograph and a Micromass Quattro Ultima triple quadrupole mass spectrometer. LC separations were made using an Xterra MS C8 reversed-phase chromatography column, 2.1 mm×250 mm at 40° C. The LC mobile phase consisted of A) water containing 0.05% (v/v) trifluoroacetic acid and B) methanol containing 0.05% (v/v) trifluoroacetic acid.
The gradient elution was linear from 5% B to 35% B, 0-4 min, linear from 35% B to 60% B, 4-6.5 min, linear from 60% B to 90% B, 6.5-7 min, isocratic at 90% B 7-11 min, linear from 90% B to 95% B, 11-12 min, linear from 95% B to 5% B, 12-13 min, with a 5 min re-equilibration period between runs. The flow rate was 0.25 mL/min, and PDA absorbance was monitored from 200 nm to 400 nm. All parameters of the ESI-MS were optimized and selected based on generation of protonated molecular ions ([M+H]^+) of the analytes of interest, and production of characteristic fragment ions. […]

[1] = tested on: E. coli MG1655::aspCproApProNde (control); assay: AcrAB k.o. validation: growth (OD 600 nm) with novobiocin / sodium decanoate, control strain; assay type: cell-based, Escherichia coli; details: sodium decanoate 2.5 mM; novobiocin 0 ppm
Protocol: Single chloramphenicol-resistant colonies were purified by restreaking on appropriate selective media and single colonies were tested by PCR as previously described for the BW25113 knockout strains, to verify the presence of the emrB and acrAB knockouts. The effects of the emrB and acrAB knockouts on the EmrAB and AcrAB transporter systems respectively were determined by assessing the phenotype of the transport mutants using appropriate antibiotics and comparison to wild type control microorganisms as shown in Table 3.1 and Table 3.2 below.

[2] = 2.5 mM Na decanoate, E. coli BL21 (DE3)::aspC/proA/pET32, single flasks

CCCCCCCCCC(=O)[O-].[Na+] [sodium decanoate]
Monatin/dcw at run hour 24 (AcrAB efflux system; [2]): 14.7 mg monatin/g dcw and 12.0 mg monatin/g dcw and 17.0 mg monatin/g dcw
Monatin/dcw at run hour 30 (AcrAB efflux system; [2]): 14.3 mg monatin/g dcw and 13.8 mg monatin/g dcw and 17.4 mg monatin/g dcw
Average monatin/dcw at run hour 24 (AcrAB efflux system; 2.5 mM Na decanoate, n = 3): 14.6 mg monatin/g dcw
Average monatin/dcw at run hour 30 (AcrAB efflux system; 2.5 mM Na decanoate, n = 3): 15.2 mg monatin/g dcw
increase in monatin secreted/dry cell weight (AcrAB efflux system; 2.5 mM sodium decanoate vs no decanoate): Greater than nine fold increase
OD 600 nm at 19 hours [1]: 1.396
